Data on 38 compounds can be found in patent US10106529B2, “Compounds that modulate intracellular calcium” (CalciMedica, Inc., priority 2011, dated 2018).

In one test the target is T1, Orai1/STIM1 (Homo sapiens, UniProt Q96D31).
T1 construct: c-myc (C); expressed in transfected cells; host or cells: HEK-293 cells stably expressing recombinant human STIM1 and Orai1
The test is described as follows: Fluorescence-based assay of store-operated calcium entry in Orai1/STIM1 stable cells. In kind it is cell-based. Details: key to Orai1/STIM1 (IC50, μmol): A, IC50 < 0.6 μM; B, IC50 = 0.6-1.2 μM; C, IC50 > 1.2 μM; — no fit. The settings on record: HEK-293 cells stably expressing human STIM1 and Orai1, inhibition of Peak-Basal fluorescence signal after calcium addition; for pIC50: read-out: Orai1/STIM1 (IC50, μmol). An excerpt:
(§1) Fluorescence-based assays are used for screening the compounds described herein, such as compounds of Formulas (I), (IA), (II), (IIA), (III), (IIIA), (IV), (IVA), (V), (VA), (VI), (VIA), (VII), (VIIA), (VIII), (VIIIA), (IX), (IXA), (X), (XI), (XIA), (XII), or (XIIA) which modulate intracellular calcium.
A. Fluorescence-Based Assay of Store-Operated Calcium Entry in Orai1/STIM1 Stable Cells.
Cells stably expressing recombinant human STIM1 and Orai1 are generated by transfecting a human Orai1 expression plasmid (pcDNA3.1-Orai1-cmyc) into HEK-293 cells stably overexpressing human STIM1 (Roos et al. 2005 JCB 169(3): 435-445). Colonies of cells stably expressing both STIM1 and Orai1 proteins are selected and then subcloned by limiting dilution. Cells were cultured at 37° C./6% CO2 in complete medium with 10% FBS and appropriate selection markers.
The day prior to performing the assay Orai1/STIM1 stable cells are plated in 50 μL of complete medium at 90-95% confluence in a 384 well plate. Cells are grown at 37° C./6% CO2 overnight. On the day of the assay, 1.5 μM fluo-4-AM (Invitrogen) in complete medium is added to the cells, which are then incubated for 1 hour at RT. Cells are washed once in Ca^2+-free HBSS (Hank's buffered saline solution) and 35 μl of Ca^2+-free HBSS is added to each well. Test compounds are added to wells in a 10 μL Ca^2+-free HBSS solution, prepared at 4.5× the desired final concentration, and incubated for 30 minutes at RT. The initial baseline fluorescence signal is then measured with a FLIPR^384 (Molecular Devices) plate reader. Calcium entry is initiated by adding 5 μl of 10×CaCl2 (10 mM) in HBSS, and changes in cellular fluorescence are measured with the FLIPR^384 plate reader. In each well, the magnitude of the fluorescence signal as a result of calcium entry into the cell is determined by calculating the difference between the peak fluorescence signal measured after calcium addition and the initial baseline fluorescence signal (designated Peak-Basal). IC50 values are typically calculated as the concentration that inhibited 50% of the Peak-Basal signal.

The next test relates to RBL-2H3 cells. The test is described as follows: Fluorescence-based assay of store-operated calcium entry in RBL-2H3 cells. Type of test: cell-based, rat. The settings on record: Rattus norvegicus, thapsigargin, inhibition of Upslope of fluorescence after calcium addition, read-out: RBL-2H3 (IC50, μmol). The protocol: as §1
B. Fluorescence-Based Assay of Store-Operated Calcium Entry in RBL-2H3 Cells.
RBL-2H3 cells are obtained from ATCC and maintained in complete medium with 10% FBS at 37° C./6% CO2.
The day prior to performing the assay, RBL-2H3 cells are plated in 50 μL of complete medium in a 384 well plate. Cells are grown at 37° C./6% CO2 overnight and grow to 50-60% confluence by the next day. On the assay day, 1.5 µM Fluo-4-AM dye (Invitrogen) in complete medium is added and incubated for 1 hour at RT. Cells are washed twice in Ca^2+-free HBSS buffer and 35 μL Ca^2+-free HBSS buffer is added to each well. 10 μL of a test compound prepared in a Ca^2+-free HBSS solution at 4.5× of the desired concentration is added to a well and incubated for 5 minutes at RT. 10 μL of thapsigargin prepared in a Ca^2+-free HBSS solution at 5.5× of the desired concentration (5.5 uM) is added to each well and incubated for an additional 25 minutes. The initial baseline fluorescence signal is measured with a FLIPR^384 (Molecular Devices) plate reader. 5 μL of 12× calcium in HBSS (12 mM) is added and changes in cellular fluorescence are measured with the FLIPR^384 plate reader. In each well, the change in the fluorescent signal as a function of time due to calcium entry into the cell is determined by calculating the difference between the fluorescent signal measured 7 seconds after calcium addition and the initial baseline fluorescence signal at time zero (t=0). This parameter is designated Upslope. The IC50 value is calculated as the concentration at which 50% of the Upslope is inhibited.

pIC50: −log10 of the molar value.

T1 sequence (Q96D31 whole entry): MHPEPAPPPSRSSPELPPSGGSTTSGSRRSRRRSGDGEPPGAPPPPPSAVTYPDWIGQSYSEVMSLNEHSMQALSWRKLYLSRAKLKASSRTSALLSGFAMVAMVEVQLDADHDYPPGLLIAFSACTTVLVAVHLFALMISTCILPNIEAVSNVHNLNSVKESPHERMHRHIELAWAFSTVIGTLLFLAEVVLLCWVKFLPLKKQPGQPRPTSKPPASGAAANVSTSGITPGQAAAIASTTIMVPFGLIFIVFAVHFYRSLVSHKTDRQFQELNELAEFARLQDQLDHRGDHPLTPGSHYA

For the compound `Fc1cccc(F)c1CNc1ccc(-c2cc3c(cc2Cl)OC(F)(F)O3)cn1` [Compound 2, 5-(6-chloro-2,2-difluorobenzo[d][1,3]dioxol-5-yl)-N-(2,6-difluorobenzyl)pyridin-2-amine], the pIC50 at Orai1/STIM1 is 5.92 to 6.22; with RBL-2H3 cells, over 6.22.
The like results for `Cc1cc2c(cc1-c1ccc(NCc3c(F)cccc3F)nc1)OC(F)(F)O2` [Compound 4, 5-(2,2-difluoro-6-methylbenzo[d][1,3]dioxol-5-yl)-N-(2,6-difluorobenzyl)pyridin-2-amine] were, in that order, 5.92 to 6.22 and over 6.22.
For the compound `Cc1cc2c(cc1-c1ccc(NCc3c(F)cccc3F)cn1)OC(F)(F)O2` [Compound 6, 6-(2,2-difluoro-6-methylbenzo[d][1,3]dioxol-5-yl)-N-(2,6-difluorobenzyl)pyridin-3-amine], the pIC50 at Orai1/STIM1 and in the test on RBL-2H3 cells was over 6.22 in each case.
`Fc1cccc(CNc2ccc(-c3cc4c(cc3Cl)OC(F)(F)O4)cn2)c1Cl` [Compound 8, 5-(6-chloro-2,2-difluorobenzo[d][1,3]dioxol-5-yl)-N-(2-chloro-3-fluorobenzyl)pyridin-2-amine]: the figures for the pIC50 at Orai1/STIM1 and in the test on RBL-2H3 cells were under 5.92 and over 6.22, respectively.
For `FC1(F)Oc2cc(Cl)c(-c3ccc(NCc4ccccc4Cl)nc3)cc2O1` [Compound 10, 5-(6-chloro-2,2-difluorobenzo[d][1,3]dioxol-5-yl)-N-(2-chlorobenzyl)pyridin-2-amine] the same measures were under 5.92 and over 6.22.
In the case of `FC1(F)Oc2cc(Cl)c(-c3ccc(NCc4ccccc4C(F)(F)F)nc3)cc2O1` [Compound 12, 5-(6-chloro-2,2-difluorobenzo[d][1,3]dioxol-5-yl)-N-(2-(trifluoromethyl)benzyl)pyridin-2-amine], the “Orai1/STIM1 (IC50, μmol)” value at Orai1/STIM1 is on record as “—”. Further, the pIC50 in the test on RBL-2H3 cells was over 6.22.
For `Fc1ccc(CNc2ccc(-c3cc4c(cc3Cl)OC(F)(F)O4)cn2)c(Cl)c1` [Compound 13], the pIC50 was under 5.92 at Orai1/STIM1 and over 6.22 in the test with RBL-2H3 cells.
For `COc1ccc(F)cc1CNc1ccc(-c2cc3c(cc2Cl)OC(F)(F)O3)cn1` [Compound 14], the “Orai1/STIM1 (IC50, μmol)” value on Orai1/STIM1 was “—”. Moreover, in the test on RBL-2H3 cells, the pIC50 is over 6.22.
For the compound `COc1ccccc1CNc1ccc(-c2cc3c(cc2Cl)OC(F)(F)O3)cn1` [Compound 15], the pIC50 on Orai1/STIM1 is under 5.92; in the test on RBL-2H3 cells, over 6.22.
As for `Fc1cccc(CNc2ccc(-c3cc4c(cc3Cl)OC(F)(F)O4)cn2)c1` [Compound 16], the values for the pIC50 at Orai1/STIM1 and with RBL-2H3 cells were 5.92 to 6.22 and over 6.22, respectively.
The like results for `Cc1cc2c(cc1-c1ccc(NCc3c(F)cccc3F)nc1)CCC2` [Compound 17] were, in that order, 5.92 to 6.22 and over 6.22.
Turning to `Cc1ccc(F)cc1CNc1ccc(-c2cc3c(cc2C)CCC3)cn1` [Compound 18], the “Orai1/STIM1 (IC50, μmol)” value at Orai1/STIM1 is recorded as “—”. In the test on RBL-2H3 cells, the pIC50 is over 6.22.
In the case of `Cc1ccccc1CNc1ccc(-c2cc3c(cc2C)OC(F)(F)O3)cn1` [Compound 19], the pIC50 at Orai1/STIM1 and with RBL-2H3 cells was over 6.22 in each case.
As for `Cc1cc2c(cc1-c1ccc(NCc3ccccc3Cl)nc1)OC(F)(F)O2` [Compound 20], the pIC50 is under 5.92 at Orai1/STIM1 and over 6.22 with RBL-2H3 cells.
As for `Cc1cc2c(cc1-c1ccc(NCc3ccccc3F)nc1)OC(F)(F)O2` [Compound 21], the pIC50 on Orai1/STIM1 and in the test with RBL-2H3 cells was over 6.22 in each case.
Turning to `Cc1cc2c(cc1-c1ccc(NCc3c(F)cccc3Cl)nc1)OC(F)(F)O2` [Compound 22], the pIC50 on Orai1/STIM1 was under 5.92; in the test on RBL-2H3 cells it was over 6.22.
As to `Cc1cc2c(cc1-c1ccc(NCc3c(F)cc(F)cc3F)nc1)OC(F)(F)O2` [Compound 24], the pIC50 with RBL-2H3 cells was over 6.22.
`Cc1cc2c(cc1-c1ccc(NCc3c(F)ccc(F)c3F)nc1)OC(F)(F)O2` [Compound 25]: the pIC50 in the test with RBL-2H3 cells was over 6.22.
Take `Cc1sc(C(F)(F)F)nc1-c1ccc(NCc2ccccc2F)nc1` [Compound 26]: in the test with RBL-2H3 cells, the pIC50 was over 6.22.
Still for that read-out and setting: next, `Cc1sc(C(F)(F)F)nc1-c1ccc(NCc2c(F)cc(F)cc2F)nc1` [Compound 27]: over 6.22; `Cc1cc2c(cc1-c1cnc(NCc3c(F)cccc3F)nc1)OC(F)(F)O2` [Compound 32, 5-(2,2-difluoro-6-methyl-1,3-benzodioxol-5-yl)-N-[(2,6-difluorophenyl)methyl]pyrimidin-2-amine]: over 6.22.
The same measure, in the same setting: next, `Fc1cccc(F)c1CNc1ccc(-c2nc3c(cc2Cl)OCCO3)cn1` [Compound 45, 5-(7-chloro-2,3-dihydro-[1,4]dioxino[2,3-b]pyridin-6-yl)-N-(2,6-difluorobenzyl)pyridin-2-amine]: over 6.22.
The same measure, in the same setting: next, `Cc1cc2c(cc1-c1cnc(OCc3c(F)cccc3F)nc1)OC(F)(F)O2` [Compound 62]: 5.92 to 6.22; `Cn1nc(C(F)(F)F)cc1-c1cnc(OCc2c(F)cccc2F)nc1` [Compound 63]: under 5.92; `Cc1cc2c(cc1-c1ccc(OCc3c(F)cccc3F)nc1)OC(F)(F)O2` [Compound 66]: over 6.22.
As to `Cn1nc(C(F)(F)F)cc1-c1ccc(OCc2c(F)cccc2F)nc1` [Compound 67], the pIC50 in the test on RBL-2H3 cells was 5.92 to 6.22.
The same measure, in the same setting: next, `Cn1nc(C(F)(F)F)cc1-c1ccc(NCc2c(F)cc(F)cc2F)cn1` [Compound 87]: over 6.22; `CCn1nc(C(F)(F)F)cc1-c1ccc(NCc2ccccc2F)cn1` [Compound 88]: over 6.22.
The same measure, in the same setting: the same measure for `CCn1nc(C(F)(F)F)cc1-c1ccc(NCc2c(F)cccc2F)cn1` [Compound 89]: over 6.22.
Still for that read-out and setting: the same measure for `Cn1nc(C(F)(F)F)cc1-c1ncc(NCc2c(F)cccc2F)cc1F` [Compound 91]: over 6.22; for `Cn1nc(C(F)(F)F)cc1-c1cnc(NCc2c(F)cccc2F)nc1` [Compound 94, N-(2,6-difluorobenzyl)-5-(1-methyl-3-(trifluoromethyl)-1H-pyrazol-5-yl)pyrimidin-2-amine]: over 6.22; for `Fc1ccc(C(F)(F)F)c(Oc2ccc(NCc3c(F)cccc3F)nc2)c1` [Compound 133, N-(2,6-difluorobenzyl)-5-(5-fluoro-2-(trifluoromethyl)phenoxy)pyridin-2-amine]: over 6.22.
As for `CCc1ccccc1Oc1ccc(NCc2c(F)cc(F)cc2F)nc1` [Compound 136], the pIC50 in the test on RBL-2H3 cells was under 5.92.
With `CCc1ccccc1Oc1ccc(NCc2c(F)cccc2F)nc1` [Compound 137], the pIC50 in the test with RBL-2H3 cells is under 5.92.
Take `Fc1cc(F)c(CNc2ccc(Oc3cc(F)ccc3C(F)(F)F)cn2)c(F)c1` [Compound 138]: in the test with RBL-2H3 cells, the pIC50 is over 6.22.
Same read-out and setting: next, `Fc1ccc(C(F)(F)F)c(Oc2ccc(NCc3c(F)cncc3F)nc2)c1` [Compound 139]: over 6.22; `Fc1cc(F)c(CNc2ccc(Oc3cc(C(F)(F)F)ccc3C(F)(F)F)cn2)c(F)c1` [Compound 140]: 5.92 to 6.22; `Fc1cccc(F)c1CNc1ccc(Oc2cc(C(F)(F)F)ccc2C(F)(F)F)cn1` [Compound 141]: over 6.22.
